pIC50: −log10 of the molar value. Read-outs that look alike come from different tables or passages of the source.
Tests used:
[1] = target: human JAK1 (a.a. 837-1142) (Homo sapiens, UniProt P23458); assay: In vitro JAK kinase assay (HTRF, phosphorylation of biotinylated peptide), JAK1; format: biochemical; conditions: for pIC50: Table F
Experimental: Compounds herein were tested for inhibitory activity of JAK targets according to the following in vitro assay described in Park et al., Analytical Biochemistry 1999, 269, 94-104. The catalytic domains of human JAK1 (a.a. 837-1142) and JAK2 (a.a. 828-1132) with an N-terminal His tag were expressed using baculovirus in insect cells and purified. The catalytic activity of JAK1 and JAK2 was assayed by measuring the phosphorylation of a biotinylated peptide. The phosphorylated peptide was detected by homogenous time resolved fluorescence (HTRF). […] Reactions were carried out at room temperature for 1 hour and then stopped with 20 μL 45 mM EDTA, 300 nM SA-APC, 6 nM Eu-Py20 in assay buffer (Perkin Elmer, Boston, Mass.). Binding to the Europium labeled antibody took place for 40 minutes and HTRF signal was measured on a Fusion plate reader (Perkin Elmer, Boston, Mass.). […] Data is indicated as ranges, wherein “+” is less than 10 nM; “++” is 10 nM to 25 nM; “+++” is greater than 25 nM to 100 nM; and “++++” is greater than 100 nM. Greater than 25 nM to 100 nM specifies a range with a lower endpoint “at greater than 25 nM” and an upper endpoint at 100 nM.

JAK2 (a.a. 828-1132) = target: T1, JAK2 (a.a. 828-1132) (Homo sapiens, UniProt O60674); assay: In vitro JAK kinase assay (HTRF, phosphorylation of biotinylated peptide), JAK2; format: biochemical
T1 construct: JAK2 (a.a. 828-1132); His tag (N)
T1 sequence (O60674 828-1132): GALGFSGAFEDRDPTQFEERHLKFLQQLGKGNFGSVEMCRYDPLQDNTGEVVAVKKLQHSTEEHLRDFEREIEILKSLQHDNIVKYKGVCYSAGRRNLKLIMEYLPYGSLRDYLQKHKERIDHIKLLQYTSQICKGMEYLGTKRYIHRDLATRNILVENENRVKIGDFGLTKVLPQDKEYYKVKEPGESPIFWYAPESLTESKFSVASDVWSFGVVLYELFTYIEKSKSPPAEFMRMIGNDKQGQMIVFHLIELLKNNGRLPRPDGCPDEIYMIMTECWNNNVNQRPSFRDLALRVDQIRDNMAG
Experimental: Compounds herein were tested for inhibitory activity of JAK targets according to the following in vitro assay described in Park et al., Analytical Biochemistry 1999, 269, 94-104. The catalytic domains of human JAK1 (a.a. 837-1142) and JAK2 (a.a. 828-1132) with an N-terminal His tag were expressed using baculovirus in insect cells and purified. The catalytic activity of JAK1 and JAK2 was assayed by measuring the phosphorylation of a biotinylated peptide. The phosphorylated peptide was detected by homogenous time resolved fluorescence (HTRF). […] Reactions were carried out at room temperature for 1 hour and then stopped with 20 μL 45 mM EDTA, 300 nM SA-APC, 6 nM Eu-Py20 in assay buffer (Perkin Elmer, Boston, Mass.). Binding to the Europium labeled antibody took place for 40 minutes and HTRF signal was measured on a Fusion plate reader (Perkin Elmer, Boston, Mass.). See Tables A-F for data related to compounds of the Examples (at 1 mM). Data is indicated as ranges, wherein “+” is less than 10 nM; “++” is 10 nM to 25 nM; “+++” is greater than 25 nM to 100 nM; and “++++” is greater than 100 nM. Greater than 25 nM to 100 nM specifies a range with a lower endpoint “at greater than 25 nM” and an upper endpoint at 100 nM.

[2] = read-out: JAK1 IC50 (nM) at 1 mM, Table E, 1 mM ATP

Sequence of human JAK1 (a.a. 837-1142) (P23458 849-1154): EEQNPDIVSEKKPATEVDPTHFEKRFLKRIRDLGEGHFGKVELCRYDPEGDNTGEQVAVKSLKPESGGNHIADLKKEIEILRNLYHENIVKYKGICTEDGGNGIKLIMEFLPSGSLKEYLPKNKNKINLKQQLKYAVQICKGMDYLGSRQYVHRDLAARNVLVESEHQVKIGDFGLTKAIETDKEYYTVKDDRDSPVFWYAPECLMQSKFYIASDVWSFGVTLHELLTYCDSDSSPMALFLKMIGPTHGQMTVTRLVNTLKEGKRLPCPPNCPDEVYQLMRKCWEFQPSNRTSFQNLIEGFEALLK

3-[(4-{trans-3-(cyanomethyl)-3-[4-(7H-pyrrolo[2,3-d]pyrimidin-4-yl)-1H-pyrazol-1-yl]cyclobutyl}piperazin-1-yl)methyl]-5-[(dimethylamino)methyl]benzonitrile [Example 43]
IC50 ([1]; read-out: JAK1 IC50 (nM) at 1 mM ATP, Table F): 25 to 100 nM | IC50 (JAK2 (a.a. 828-1132); read-out: JAK2 IC50 (nM) at 1 mM ATP, Table F): > 100 nM

N#CC[C@]1(n2cc(-c3ncnc4[nH]ccc34)cn2)C[C@H](N2CCN(C(=O)N[C@H]3CCC[C@@H]3O)CC2)C1 (racemic) [Example 88, 4-{trans-3-(cyanomethyl)-3-[4-(7H-pyrrolo[2,3-d]pyrimidin-4-yl)-1H-pyrazol-1-yl]cyclobutyl}-N-(2-hydroxycyclopentyl)piperazine-1-carboxamide]
pIC50 ([1]; 1 mM ATP): > 8.00 | pIC50 (JAK2 (a.a. 828-1132); Table F, 1 mM ATP): 7.00 to 7.60

N#CC[C@]1(n2cc(-c3ncnc4[nH]ccc34)cn2)C[C@H](N2CCN(C(=O)N[C@H]3CCC[C@H]3O)CC2)C1 (single isomer, unassigned) [Example 89]
pIC50 ([1]; 1 mM ATP): > 8.00 | pIC50 (JAK2 (a.a. 828-1132); Table F, 1 mM ATP): 7.00 to 7.60

COCc1cc(OC2CCN([C@H]3C[C@@](CC#N)(n4cc(-c5ncnc6[nH]ccc56)cn4)C3)CC2)nc(C(F)(F)F)c1 (single isomer, unassigned) [Example 121, {cis-3-(4-{[4-(methoxymethyl)-6-(trifluoromethyl)pyridin-2-yl]oxy}piperidin-1-yl)-1-[4-(7H-pyrrolo[2,3-d]pyrimidin-4-yl)-1H-pyrazol-1-yl]cyclobutyl}acetonitrile]
pIC50 ([1]; 1 mM ATP): 7.00 to 7.60 | pIC50 (JAK2 (a.a. 828-1132); Table F, 1 mM ATP): < 7.00

COCc1cc(OC2CCN([C@H]3C[C@](CC#N)(n4cc(-c5ncnc6[nH]ccc56)cn4)C3)CC2)nc(C(F)(F)F)c1 (single isomer, unassigned) [Example 122, {trans-3-(4-{[4-(methoxymethyl)-6-(trifluoromethyl)pyridin-2-yl]oxy}piperidin-1-yl)-1-[4-(7H-pyrrolo[2,3-d]pyrimidin-4-yl)-1H-pyrazol-1-yl]cyclobutyl}acetonitrile]
pIC50 ([1]; 1 mM ATP): > 8.00 | pIC50 (JAK2 (a.a. 828-1132); Table F, 1 mM ATP): < 7.00

N#CC[C@]1(n2cc(-c3ncnc4[nH]ccc34)cn2)C[C@H](N2CCC(Oc3cc(CO)cc(C(F)(F)F)n3)CC2)C1 (single isomer, unassigned) [Example 123, {trans-3-(4-{[4-(hydroxymethyl)-6-(trifluoromethyl)pyridin-2-yl]oxy}piperidin-1-yl)-1-[4-(7H-pyrrolo[2,3-d]pyrimidin-4-yl)-1H-pyrazol-1-yl]cyclobutyl}acetonitrile]
pIC50 ([1]; 1 mM ATP): > 8.00 | pIC50 (JAK2 (a.a. 828-1132); Table F, 1 mM ATP): < 7.00

N#CC[C@]1(n2cc(-c3ncnc4[nH]ccc34)cn2)C[C@@H](N2CCC(Oc3cc(CO)cc(C(F)(F)F)n3)CC2)C1 (single isomer, unassigned) [Example 124, {cis-3-(4-{[4-(hydroxymethyl)-6-(trifluoromethyl)pyridin-2-yl]oxy}piperidin-1-yl)-1-[4-(7H-pyrrolo[2,3-d]pyrimidin-4-yl)-1H-pyrazol-1-yl]cyclobutyl}acetonitrile]
pIC50 ([1]; 1 mM ATP): 7.00 to 7.60 | pIC50 (JAK2 (a.a. 828-1132); Table F, 1 mM ATP): < 7.00

CC(C)(O)c1cc(OC2CCN([C@H]3C[C@](CC#N)(n4cc(-c5ncnc6[nH]ccc56)cn4)C3)CC2)nc(C(F)(F)F)c1 (single isomer, unassigned) [Example 125, {trans-3-(4-{[4-(1-hydroxy-1-methylethyl)-6-(trifluoromethyl)pyridin-2-yl]oxy}piperidin-1-yl)-1-[4-(7H-pyrrolo[2,3-d]pyrimidin-4-yl)-1H-pyrazol-1-yl]cyclobutyl}acetonitrile]
pIC50 ([1]; 1 mM ATP): > 8.00 | pIC50 (JAK2 (a.a. 828-1132); Table F, 1 mM ATP): 7.00 to 7.60

CC(C)(O)c1cc(OC2CCN([C@H]3C[C@@](CC#N)(n4cc(-c5ncnc6[nH]ccc56)cn4)C3)CC2)nc(C(F)(F)F)c1 (single isomer, unassigned) [Example 126, {cis-3-(4-{[4-(1-hydroxy-1-methylethyl)-6-(trifluoromethyl)pyridin-2-yl]oxy}piperidin-1-yl)-1-[4-(7H-pyrrolo[2,3-d]pyrimidin-4-yl)-1H-pyrazol-1-yl]cyclobutyl}acetonitrile]
pIC50 ([1]; 1 mM ATP): 7.60 to 8.00 | pIC50 (JAK2 (a.a. 828-1132); Table F, 1 mM ATP): < 7.00

N#CC[C@]1(n2cc(-c3ncnc4[nH]ccc34)cn2)C[C@@H](N2CCC(Oc3cc(C#N)cc(C(F)(F)F)n3)CC2)C1 (single isomer, unassigned) [Example 133, 2-[(1-{cis-3-(cyanomethyl)-3-[4-(7H-pyrrolo[2,3-d]pyrimidin-4-yl)-1H-pyrazol-1-yl]cyclobutyl}piperidin-4-yl)oxy]-6-(trifluoromethyl)isonicotinonitrile]
pIC50 ([1]; 1 mM ATP): 7.00 to 7.60 | pIC50 (JAK2 (a.a. 828-1132); Table F, 1 mM ATP): < 7.00

N#CC[C@]1(n2cc(-c3ncnc4[nH]ccc34)cn2)C[C@H](N2CCC(Oc3cc(C#N)cc(C(F)(F)F)n3)CC2)C1 (single isomer, unassigned) [Example 134, 2-1(1-{trans-3-(cyanomethyl)-3-[4-(7H-pyrrolo[2,3-d]pyrimidin-4-yl)-1H-pyrazol-1-yl]cyclobutyl}piperidin-4-yl)oxyl-6-(trifluoromethyl)isonicotinonitrile]
pIC50 ([1]; 1 mM ATP): > 8.00 | pIC50 (JAK2 (a.a. 828-1132); Table F, 1 mM ATP): < 7.00

N#CC[C@]1(n2cc(-c3ncnc4[nH]ccc34)cn2)C[C@@H](N2CCC(Oc3cc(CN4CCOC4=O)cc(C(F)(F)F)n3)CC2)C1 (single isomer, unassigned) [Example 165, peak 1, {cis-3-(4-{[4-[(2-oxo-1,3-oxazolidin-3-yl)methyl]-6-(trifluoromethyl)pyridin-2-yl]oxy}piperidin-1-yl)-1-[4-(7H-pyrrolo[2,3-d]pyrimidin-4-yl)-1H-pyrazol-1-yl]cyclobutyl}acetonitrile]
pIC50 ([1]; 1 mM ATP): 7.00 to 7.60 | pIC50 (JAK2 (a.a. 828-1132); Table F, 1 mM ATP): < 7.00

N#CC[C@]1(n2cc(-c3ncnc4[nH]ccc34)cn2)C[C@H](N2CCC(Oc3cc(CN4CCOC4=O)cc(C(F)(F)F)n3)CC2)C1 (single isomer, unassigned) [Example 165, peak 2, {trans-3-(4-{[4-[(2-oxo-1,3-oxazolidin-3-yl)methyl]-6-(trifluoromethyl)pyridin-2-yl]oxy}piperidin-1-yl)-1-[4-(7H-pyrrolo[2,3-d]pyrimidin-4-yl)-1H-pyrazol-1-yl]cyclobutyl}acetonitrile]
pIC50 ([1]; 1 mM ATP): > 8.00 | pIC50 (JAK2 (a.a. 828-1132); Table F, 1 mM ATP): 7.00 to 7.60

CN(C)Cc1cc(F)cc(OC2CCN(C3CC(CC#N)(n4cc(-c5ncnc6[nH]ccc56)cn4)C3)CC2)c1 (single isomer, unassigned; isomer 1) [Example 40, isomer 1, {cis-3-(4-{3-[(dimethylamino)methyl]-5-fluorophenoxy}piperidin-1-yl)-1-[4-(7H-pyrrolo[2,3-d]pyrimidin-4-yl)-1H-pyrazol-1-yl]cyclobutyl}acetonitrile]
IC50 [1, 2]: < 10 nM | IC50 (JAK2 (a.a. 828-1132); Table E, 1 mM ATP, listed as 40, isomer 1, read-out: JAK2 IC50 (nM) +): 10 to 25 nM

C[C@H]1CCCN1Cc1cc(F)cc(OC2CCN(C3CC(CC#N)(n4cc(-c5ncnc6[nH]ccc56)cn4)C3)CC2)c1 (single isomer, unassigned; isomer 1) [Example 41, isomer 1]
IC50 [1, 2]: < 10 nM | IC50 (JAK2 (a.a. 828-1132); Table E, 1 mM ATP, listed as 41, isomer 1, read-out: JAK2 IC50 (nM) +): 10 to 25 nM

CN(C)Cc1cc(F)cc(OC2CCN(C3CC(CC#N)(n4cc(-c5ncnc6[nH]ccc56)cn4)C3)CC2)c1 (single isomer, unassigned; isomer 2) [Example 40, isomer 2, {trans-3-(4-{3-[(dimethylamino)methyl]-5-fluorophenoxy}piperidin-1-yl)-1-[4-(7H-pyrrolo[2,3-d]pyrimidin-4-yl)-1H-pyrazol-1-yl]cyclobutyl}acetonitrile]
IC50 [1, 2]: < 10 nM | IC50 (JAK2 (a.a. 828-1132); Table E, 1 mM ATP, listed as 40, isomer 2, read-out: JAK2 IC50 (nM) +): < 10 nM

C[C@H]1CCCN1Cc1cc(F)cc(OC2CCN(C3CC(CC#N)(n4cc(-c5ncnc6[nH]ccc56)cn4)C3)CC2)c1 (single isomer, unassigned; isomer 2) [Example 41, isomer 2]
IC50 [1, 2]: < 10 nM | IC50 (JAK2 (a.a. 828-1132); Table E, 1 mM ATP, listed as 41, isomer 2, read-out: JAK2 IC50 (nM) +): < 10 nM

CCS(=O)(=O)N1CCN([C@H]2C[C@](CC#N)(n3cc(-c4ncnc5[nH]ccc45)cn3)C2)CC1 [Example 35, {trans-3-[4-(ethylsulfonyl)piperazin-1-yl]-1-[4-(7H-pyrrolo[2,3-d]pyrimidin-4-yl)-1H-pyrazol-1-yl]cyclobutyl}acetonitrile]
pIC50 (JAK2 (a.a. 828-1132); Table B, 1 mM ATP, read-out: JAK2 IC50): > 8.00

From patent US10640506B2, “Cyclobutyl substituted pyrrolopyridine and pyrrolopyrimidines derivatives as JAK inhibitors” (Incyte Corporation, priority 2010, dated 2020)
